The values that follow come from patent publication US12202818B2, “Compounds and methods for CD73 modulation and indications therefor” (Opna Bio SA, priority 2020, dated 2025).

For test [1], the target named is T1, human CD73 (Homo sapiens, UniProt P21589).
T1 construct: expressed in transfected cells
T1 sequence (P21589 27-549): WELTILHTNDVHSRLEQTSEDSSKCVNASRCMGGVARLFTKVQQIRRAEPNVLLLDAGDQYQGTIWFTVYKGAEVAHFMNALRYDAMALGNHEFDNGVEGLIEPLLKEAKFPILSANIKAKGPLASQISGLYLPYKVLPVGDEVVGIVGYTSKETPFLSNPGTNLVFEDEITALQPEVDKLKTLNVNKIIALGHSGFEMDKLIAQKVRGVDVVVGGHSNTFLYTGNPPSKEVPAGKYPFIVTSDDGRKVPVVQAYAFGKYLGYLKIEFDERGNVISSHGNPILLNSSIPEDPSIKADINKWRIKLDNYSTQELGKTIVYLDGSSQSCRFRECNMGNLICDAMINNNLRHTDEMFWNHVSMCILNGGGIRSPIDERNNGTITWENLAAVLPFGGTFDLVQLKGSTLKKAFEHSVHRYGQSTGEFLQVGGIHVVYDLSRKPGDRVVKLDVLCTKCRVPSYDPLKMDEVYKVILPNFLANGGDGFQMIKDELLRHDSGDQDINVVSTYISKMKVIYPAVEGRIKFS
In words: Inhibitor activity against CD73 in cell based assay (CD73 expressing CHO-K1 cells). The settings on record: CHO-K1 cells expressing human CD73, 150 μM AMP, 4 hours of incubation; read-out: CHO-K1 CELL_VARIANT: CD73 IC50. In outline: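 Stable human CD73 CHO-K1 cells, 1×10^4/well, exposed to an 8-point 1:3 compound series (top 10 μM, 0.2% DMSO) plus 150 μM AMP for 4 h. Remaining AMP in the supernatant was read by CellTiter-Glo 2.0 luminescence with 1 μM ATP after 30 min at room temperature. IC50 came from nonlinear regression of % inhibition against cell and media-only controls.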

The target in test [2] is T2, Human CD73 (amino acid residues 27-549) (Homo sapiens, UniProt P21589).
T2 construct: Human CD73 (amino acid residues 27-549); His tag (N); made in house; host or cells: E. coli
T2 sequence (P21589 27-549): T1 sequence (P21589 27-549)
In words: CD73 enzymatic assay (luciferase-based indirect assay, CellTiter-Glo). The test is classed as biochemical. As to conditions: 0.4 nM CD73, 150 μM AMP, 1 hour at room temperature. In outline:
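N-His human CD73 (27-549) expressed in E. coli, 0.4 nM, incubated with 150 μM AMP and compound in 50 mM HEPES pH 7.4, 0.01% Tween-20, 1 h at RT. Remaining AMP read via CellTiter-Glo luminescence with 1 μM ATP after 30 min; IC50 from nonlinear regression of % inhibition.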
(In general: ATP-based viability assays read luminescence as a measure of living cells.)

The IC50 is the concentration that inhibits the measured activity by half. Regarding `O=c1c(Cl)c(N2CC[C@@H](Oc3ncccc3NC3CCC(F)(F)CC3)C2)cnn1CCO` [P-0102, (R)-4-chloro-5-(3-((3-((4,4-difluorocyclohexyl)amino)pyridin-2-yl)oxy)pyrrolidin-1-yl)-2-(2-hydroxyethyl)pyridazin-3(2H)-one], the half-inhibitory concentration (IC50) in test [1] and in test [2] was 0.001 to 10 µM throughout.

As for `CN1CCC(c2ccnc(O[C@@H]3CCN(c4cn[nH]c(=O)c4Cl)C3)c2)CC1` [P-0008, (R)-4-chloro-5-(3-((4-(1-methylpiperidin-4-yl)pyridin-2-yl)oxy)pyrrolidin-1-yl)pyridazin-3(2H)-one], the half-inhibitory concentration (IC50) in test [1] and in test [2] was 0.001 to 10 µM throughout.

Regarding `Cc1nn(CC(F)(F)F)c(C)c1-c1cc(F)nc(O[C@@H]2CCN(c3cn[nH]c(=O)c3Cl)C2)c1` [P-0167, (R)-4-chloro-5-(3-((4-(3,5-dimethyl-1-(2,2,2-trifluoroethyl)-1H-pyrazol-4-yl)-6-fluoropyridin-2-yl)oxy)pyrrolidin-1-yl)pyridazin-3(2H)-one], the IC50 in test [1] and in test [2] was 0.001 to 10 µM each time.

Take `Cc1cc(S(C)(=O)=O)ccc1-c1ccnc(O[C@@H]2CCN(c3cn[nH]c(=O)c3Cl)C2)c1` [P-0081, (R)-4-chloro-5-(3-((4-(2-methyl-4-(methylsulfonyl)phenyl)pyridin-2-yl)oxy)pyrrolidin-1-yl)pyridazin-3(2H)-one]: the IC50 in test [1] and in test [2] was 0.001 to 10 µM in each case.

In the case of `Cc1nn(CC(C)(C)O)c(C)c1-c1cc(O[C@@H]2CCN(c3cn[nH]c(=O)c3Cl)C2)ncn1` [P-0037, (R)-4-chloro-5-(3-((6-(1-(2-hydroxy-2-methylpropyl)-3,5-dimethyl-1H-pyrazol-4-yl)pyrimidin-4-yl)oxy)pyrrolidin-1-yl)pyridazin-3(2H)-one], the IC50 in test [1] and in test [2] was 0.001 to 10 µM in each case.

On to `Cc1noc(C)c1-c1ccnc(O[C@@H]2CCN(c3cnn(CCCO)c(=O)c3Cl)C2)c1` [P-0090, (R)-4-chloro-5-(3-((4-(3,5-dimethylisoxazol-4-yl)pyridin-2-yl)oxy)pyrrolidin-1-yl)-2-(3-hydroxypropyl)pyridazin-3(2H)-one], for which the IC50 in test [1] and in test [2] was 0.001 to 10 µM in each case.

`O=C(Nc1ccc(-c2ccnc(O[C@@H]3CCN(c4cn[nH]c(=O)c4Cl)C3)c2)c(F)c1)C1CCC1` [P-0212, (R)-N-(4-(2-((1-(5-chloro-6-oxo-1,6-dihydropyridazin-4-yl)pyrrolidin-3-yl)oxy)pyridin-4-yl)-3-fluorophenyl)cyclobutane-carboxamide]: the IC50 in test [1] and in test [2] was 0.001 to 10 µM each time.

In the case of `Cc1nn(C(CO)CO)c(C)c1-c1cc(O[C@H]2CN(c3cnn(CCO)c(=O)c3Cl)C[C@@H]2F)ncc1F` [P-0006, 4-chloro-5-((3S,4S)-3-((4-(1-(1,3-dihydroxypropan-2-yl)-3,5-dimethyl-1H-pyrazol-4-yl)-5-fluoropyridin-2-yl)oxy)-4-fluoropyrrolidin-1-yl)-2-(2-hydroxyethyl)pyridazin-3(2H)-one], the IC50 in test [1] and in test [2] was 0.001 to 10 µM throughout.

As to `Cc1nn(C2CCC2)c(C)c1-c1ccnc(O[C@@H]2CCN(c3cn[nH]c(=O)c3Cl)C2)c1` [P-0026, (R)-4-chloro-5-(3-((4-(1-cyclobutyl-3,5-dimethyl-1H-pyrazol-4-yl)pyridin-2-yl)oxy)pyrrolidin-1-yl)pyridazin-3(2H)-one], the IC50 in test [1] and in test [2] was 0.001 to 10 µM each time.

Turning to `Cc1nn(C)c(C)c1-c1cc(O[C@H]2CN(c3cn[nH]c(=O)c3Cl)C[C@@H]2F)ccn1` [P-0121, 4-chloro-5-((3S,4S)-3-fluoro-4-((2-(1,3,5-trimethyl-1H-pyrazol-4-yl)pyridin-4-yl)oxy)pyrrolidin-1-yl)pyridazin-3(2H)-one], the half-maximal inhibitory concentration (IC50) in test [1] and in test [2] was 0.001 to 10 µM each time.

As to `O=C(NC1CCOCC1)c1ccnc(O[C@@H]2CCN(c3cn[nH]c(=O)c3Cl)C2)c1` [P-0025, (R)-2-((1-(5-chloro-6-oxo-1,6-dihydropyridazin-4-yl)pyrrolidin-3-yl)oxy)-N-(tetrahydro-2H-pyran-4-yl)isonicotinamide], the half-maximal inhibitory concentration (IC50) in test [1] and in test [2] was 0.001 to 10 µM in each case.

With `Cc1noc(C)c1-c1cc(O[C@H]2CN(c3cnn(CC(O)CO)c(=O)c3Cl)C[C@@H]2F)ncc1F` (stereo partly drawn) [P-0129, 4-chloro-2-(2,3-dihydroxypropyl)-5-((3S,4S)-3-((4-(3,5-dimethylisoxazol-4-yl)-5-fluoropyridin-2-yl)oxy)-4-fluoropyrrolidin-1-yl)pyridazin-3(2H)-one], the IC50 in test [1] and in test [2] was 0.001 to 10 µM in each case.

For `CCCNS(=O)(=O)c1ccc(-c2cc(F)nc(O[C@@H]3CCN(c4cn[nH]c(=O)c4Cl)C3)c2)c(C)c1` [P-0216, (R)-4-(2-((1-(5-chloro-6-oxo-1,6-dihydropyridazin-4-yl)pyrrolidin-3-yl)oxy)-6-fluoropyridin-4-yl)-3-methyl-N-propylbenzenesulfonamide], the IC50 in test [1] and in test [2] was 0.001 to 10 µM each time.

Take `CC(C)(O)CN1CCC(c2ccnc(O[C@@H]3CCN(c4cn[nH]c(=O)c4Cl)C3)c2)CC1` [P-0010, (R)-4-chloro-5-(3-((4-(1-(2-hydroxy-2-methylpropyl)piperidin-4-yl)pyridin-2-yl)oxy)pyrrolidin-1-yl)pyridazin-3(2H)-one]: the IC50 in test [1] and in test [2] was 0.001 to 10 µM in each case.

Regarding `Cc1cc(S(=O)(=O)NC2CC2)cc(F)c1-c1ccnc(O[C@@H]2CCN(c3cn[nH]c(=O)c3Cl)C2)c1` [P-0224, (R)-4-(2-((1-(5-chloro-6-oxo-1,6-dihydropyridazin-4-yl)pyrrolidin-3-yl)oxy)pyridin-4-yl)-N-cyclopropyl-3-fluoro-5-methylbenzenesulfonamide], the IC50 in test [1] and in test [2] was 0.001 to 10 µM throughout.

Take `O=c1[nH]ncc(N2CC[C@@H](Oc3cc(N4CCC(NS(=O)(=O)C5CC5)CC4)ccn3)C2)c1Cl` [P-0221, (R)-N-(1-(2-((1-(5-chloro-6-oxo-1,6-dihydropyridazin-4-yl)pyrrolidin-3-yl)oxy)pyridin-4-yl)piperidin-4-yl)cyclopropanesulfonamide]: the concentration for half-maximal inhibition (IC50) in test [1] and in test [2] was 0.001 to 10 µM throughout.

With `O=c1[nH]ncc(N2CC[C@@H](Oc3cc(-c4ccc(S(=O)(=O)NC5CC5)cc4F)ccn3)C2)c1Cl` [P-0234, (R)-4-(2-((1-(5-chloro-6-oxo-1,6-dihydropyridazin-4-yl)pyrrolidin-3-yl)oxy)pyridin-4-yl)-N-cyclopropyl-3-fluorobenzenesulfonamide], the IC50 in test [1] and in test [2] was 0.001 to 10 µM throughout.

Take `Cc1noc(C)c1-c1cc(F)nc(O[C@H]2CN(c3cn[nH]c(=O)c3Cl)C[C@@H]2F)c1` [P-0189, 4-chloro-5-((3S,4S)-3-((4-(3,5-dimethylisoxazol-4-yl)-6-fluoropyridin-2-yl)oxy)-4-fluoropyrrolidin-1-yl)pyridazin-3(2H)-one]: the IC50 in test [1] and in test [2] was 0.001 to 10 µM each time.

Consider `CCCn1nc(C)c(-c2cc(F)nc(O[C@@H]3CCN(c4cn[nH]c(=O)c4)C3)c2)c1C` [P-0164, (R)-5-(3-((4-(3,5-dimethyl-1-propyl-1H-pyrazol-4-yl)-6-fluoropyridin-2-yl)oxy)pyrrolidin-1-yl)pyridazin-3(2H)-one], for which the IC50 in test [1] and in test [2] was 0.001 to 10 µM throughout.

For the compound `O=c1[nH]ncc(N2CC[C@@H](Oc3cc(-c4ccc(C(F)(F)F)cc4)ccn3)C2)c1Cl` [P-0236, (R)-4-chloro-5-(3-((4-(4-(trifluoromethyl)phenyl)pyridin-2-yl)oxy)pyrrolidin-1-yl)pyridazin-3(2H)-one], the IC50 in test [1] and in test [2] was 0.001 to 10 µM in each case.
